The source of these data is ChEMBL document CHEMBL1201862, “PubChem BioAssay data set” (2004).

The target of test [1] is T1, Microphthalmia-associated transcription factor (Homo sapiens, UniProt O75030).
T1 sequence (O75030 whole entry): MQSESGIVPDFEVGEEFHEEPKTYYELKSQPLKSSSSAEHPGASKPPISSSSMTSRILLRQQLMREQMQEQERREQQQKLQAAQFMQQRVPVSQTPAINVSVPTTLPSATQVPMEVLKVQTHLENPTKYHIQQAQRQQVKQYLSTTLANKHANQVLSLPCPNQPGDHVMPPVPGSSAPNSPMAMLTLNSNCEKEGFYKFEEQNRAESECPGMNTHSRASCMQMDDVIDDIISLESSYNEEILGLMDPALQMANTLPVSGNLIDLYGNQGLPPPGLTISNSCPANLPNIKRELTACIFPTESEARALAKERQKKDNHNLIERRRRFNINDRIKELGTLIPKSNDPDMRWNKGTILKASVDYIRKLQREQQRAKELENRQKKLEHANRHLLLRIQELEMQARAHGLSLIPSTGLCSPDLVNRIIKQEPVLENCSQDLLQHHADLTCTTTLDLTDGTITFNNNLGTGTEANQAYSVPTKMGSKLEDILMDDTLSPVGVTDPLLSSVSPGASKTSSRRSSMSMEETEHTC
In words: reducers of TRPM1 reporter luminescence, concentration series – cell-based, SK-MEL-5, cherry-picked, set 3, MITF inhibitor project, dose response (AID 493073).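 Further: SK-MEL-5 melanoma cells with luciferase driven by the MITF target TRPM1 promoter.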 In kind it is functional.

Test [2] can be described thus: THP-1 cell cytotoxicity, dose response, cytotoxicity control for non-replicating M. tuberculosis project (AID 489025). In kind it is functional.
In test [3] the target is Dual specificity protein kinase CLK4 (Homo sapiens, UniProt Q9HAZ1). In kind it is functional.
Chain of Dual specificity protein kinase CLK4 (Q9HAZ1 whole entry): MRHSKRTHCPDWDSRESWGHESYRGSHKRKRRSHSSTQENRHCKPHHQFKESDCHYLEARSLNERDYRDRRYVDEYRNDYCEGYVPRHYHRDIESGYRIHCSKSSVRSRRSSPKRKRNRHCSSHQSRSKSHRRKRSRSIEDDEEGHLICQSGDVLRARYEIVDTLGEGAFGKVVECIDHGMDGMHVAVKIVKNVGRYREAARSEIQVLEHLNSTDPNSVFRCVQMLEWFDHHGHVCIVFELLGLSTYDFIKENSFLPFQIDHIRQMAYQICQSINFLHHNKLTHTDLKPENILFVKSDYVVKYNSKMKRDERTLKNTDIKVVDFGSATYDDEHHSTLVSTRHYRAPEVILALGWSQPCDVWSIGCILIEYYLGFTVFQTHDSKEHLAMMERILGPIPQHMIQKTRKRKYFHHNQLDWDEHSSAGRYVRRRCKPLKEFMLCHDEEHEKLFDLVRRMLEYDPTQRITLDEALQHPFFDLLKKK
The target of test [4] is Mitogen-activated protein kinase kinase kinase kinase 5 (Homo sapiens, UniProt Q9Y4K4). In kind it is functional.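 Further: measured as one member of a kinome-spanning kinase panel.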
The target of test [5] is Serine/threonine-protein kinase PAK 4 (Homo sapiens, UniProt O96013). Format: functional.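 Further: value obtained within a kinome profiling panel in which PAK4 was one of the panel members.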
Chain of Serine/threonine-protein kinase PAK 4 (O96013 whole entry): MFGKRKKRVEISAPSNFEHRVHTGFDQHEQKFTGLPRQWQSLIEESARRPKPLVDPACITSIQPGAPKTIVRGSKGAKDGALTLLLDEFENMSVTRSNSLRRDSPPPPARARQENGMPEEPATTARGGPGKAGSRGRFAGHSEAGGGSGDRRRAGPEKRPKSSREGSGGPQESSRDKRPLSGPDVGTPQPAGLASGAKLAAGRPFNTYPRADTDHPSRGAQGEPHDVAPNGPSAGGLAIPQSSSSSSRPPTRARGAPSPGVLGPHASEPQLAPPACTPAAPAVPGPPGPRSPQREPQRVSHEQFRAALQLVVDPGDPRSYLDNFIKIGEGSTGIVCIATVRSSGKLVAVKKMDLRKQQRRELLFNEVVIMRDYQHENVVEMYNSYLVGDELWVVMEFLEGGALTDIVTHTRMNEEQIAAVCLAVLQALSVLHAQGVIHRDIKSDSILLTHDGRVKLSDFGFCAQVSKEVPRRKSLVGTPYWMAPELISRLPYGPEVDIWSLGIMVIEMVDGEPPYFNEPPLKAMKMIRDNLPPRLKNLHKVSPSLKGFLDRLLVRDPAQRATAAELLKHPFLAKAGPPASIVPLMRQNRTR
Test [6] deals with Tyrosine-protein kinase Fyn (Homo sapiens, UniProt P06241). In kind it is functional.
Chain of Tyrosine-protein kinase Fyn (P06241 whole entry): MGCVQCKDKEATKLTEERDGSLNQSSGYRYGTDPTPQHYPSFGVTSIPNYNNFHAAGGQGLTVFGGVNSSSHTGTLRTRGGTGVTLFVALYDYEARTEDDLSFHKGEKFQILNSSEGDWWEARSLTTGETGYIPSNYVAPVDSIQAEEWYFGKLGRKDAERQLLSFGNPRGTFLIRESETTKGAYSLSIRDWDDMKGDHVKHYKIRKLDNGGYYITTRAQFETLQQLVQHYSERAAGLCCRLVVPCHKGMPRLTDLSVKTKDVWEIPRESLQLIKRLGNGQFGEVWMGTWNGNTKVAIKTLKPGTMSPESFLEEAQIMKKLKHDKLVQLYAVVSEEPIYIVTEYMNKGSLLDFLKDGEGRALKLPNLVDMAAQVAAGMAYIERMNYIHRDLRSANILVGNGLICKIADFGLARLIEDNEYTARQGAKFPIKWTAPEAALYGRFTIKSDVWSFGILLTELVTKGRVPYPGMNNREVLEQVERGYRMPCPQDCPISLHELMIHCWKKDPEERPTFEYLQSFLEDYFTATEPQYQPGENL
Test [7] concerns the target Insulin-like growth factor 1 receptor (Homo sapiens, UniProt P08069). The test can be described thus: Navigating the Kinome. Panel member name: IGF1R. In kind it is functional.
The target in test [8] is Platelet-derived growth factor receptor alpha (Homo sapiens, UniProt P16234). In words: Navigating the Kinome. Panel member name: PDGFRA. Format: functional.
For test [9], the target named is Mast/stem cell growth factor receptor Kit (Homo sapiens, UniProt P10721). In kind it is functional.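 Further: KIT entry within a kinase panel assay.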
Test [10] deals with Rho-associated protein kinase 2 (Homo sapiens, UniProt O75116). In kind it is functional.
In test [11] the target is BDNF/NT-3 growth factors receptor (Homo sapiens, UniProt Q16620). In kind it is functional.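 Further: NTRK2 measured as one member of a broad kinome-wide kinase profiling panel.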
Chain of BDNF/NT-3 growth factors receptor (Q16620 whole entry): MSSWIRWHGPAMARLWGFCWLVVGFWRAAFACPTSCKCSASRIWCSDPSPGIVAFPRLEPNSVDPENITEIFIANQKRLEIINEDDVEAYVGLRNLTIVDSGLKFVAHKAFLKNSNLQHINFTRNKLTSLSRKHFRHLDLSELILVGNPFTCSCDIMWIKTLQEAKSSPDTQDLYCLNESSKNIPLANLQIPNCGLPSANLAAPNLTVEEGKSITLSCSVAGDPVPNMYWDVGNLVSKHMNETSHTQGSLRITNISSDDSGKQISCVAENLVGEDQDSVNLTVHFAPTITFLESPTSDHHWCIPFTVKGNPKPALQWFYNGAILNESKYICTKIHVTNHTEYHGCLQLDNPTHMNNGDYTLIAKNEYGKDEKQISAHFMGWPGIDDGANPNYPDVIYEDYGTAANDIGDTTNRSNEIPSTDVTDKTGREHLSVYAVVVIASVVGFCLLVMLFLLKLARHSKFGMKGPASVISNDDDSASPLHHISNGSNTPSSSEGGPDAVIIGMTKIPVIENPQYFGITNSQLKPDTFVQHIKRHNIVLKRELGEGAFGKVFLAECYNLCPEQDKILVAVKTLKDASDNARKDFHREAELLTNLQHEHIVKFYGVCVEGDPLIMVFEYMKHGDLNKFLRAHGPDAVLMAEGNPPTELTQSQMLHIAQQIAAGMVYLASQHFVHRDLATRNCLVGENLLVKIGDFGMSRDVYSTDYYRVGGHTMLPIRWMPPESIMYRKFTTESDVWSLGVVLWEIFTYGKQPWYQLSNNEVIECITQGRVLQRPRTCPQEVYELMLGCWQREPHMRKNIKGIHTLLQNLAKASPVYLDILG
The target in test [12] is Calcium/calmodulin-dependent protein kinase type II subunit alpha (Homo sapiens, UniProt Q9UQM7). The test can be described thus: Navigating the Kinome. Panel member name: CAMK2A. Format: functional.
Chain of Calcium/calmodulin-dependent protein kinase type II subunit alpha (Q9UQM7 whole entry): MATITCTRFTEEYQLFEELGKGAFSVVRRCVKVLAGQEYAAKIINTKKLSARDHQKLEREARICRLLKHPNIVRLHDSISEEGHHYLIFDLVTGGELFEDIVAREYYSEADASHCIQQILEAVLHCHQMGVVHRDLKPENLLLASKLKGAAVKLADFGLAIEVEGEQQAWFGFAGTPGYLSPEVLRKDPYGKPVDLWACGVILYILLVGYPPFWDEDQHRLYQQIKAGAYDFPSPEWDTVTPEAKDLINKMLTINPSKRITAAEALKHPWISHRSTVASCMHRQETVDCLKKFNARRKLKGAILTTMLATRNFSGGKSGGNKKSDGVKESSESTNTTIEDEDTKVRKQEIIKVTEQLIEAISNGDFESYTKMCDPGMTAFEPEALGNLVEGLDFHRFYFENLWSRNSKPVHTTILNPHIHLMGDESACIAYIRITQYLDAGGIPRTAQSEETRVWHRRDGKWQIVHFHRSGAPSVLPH
Test [13] deals with T2, Mitogen-activated protein kinase kinase kinase kinase 2 (Homo sapiens, UniProt Q12851).
T2 sequence (Q12851 whole entry): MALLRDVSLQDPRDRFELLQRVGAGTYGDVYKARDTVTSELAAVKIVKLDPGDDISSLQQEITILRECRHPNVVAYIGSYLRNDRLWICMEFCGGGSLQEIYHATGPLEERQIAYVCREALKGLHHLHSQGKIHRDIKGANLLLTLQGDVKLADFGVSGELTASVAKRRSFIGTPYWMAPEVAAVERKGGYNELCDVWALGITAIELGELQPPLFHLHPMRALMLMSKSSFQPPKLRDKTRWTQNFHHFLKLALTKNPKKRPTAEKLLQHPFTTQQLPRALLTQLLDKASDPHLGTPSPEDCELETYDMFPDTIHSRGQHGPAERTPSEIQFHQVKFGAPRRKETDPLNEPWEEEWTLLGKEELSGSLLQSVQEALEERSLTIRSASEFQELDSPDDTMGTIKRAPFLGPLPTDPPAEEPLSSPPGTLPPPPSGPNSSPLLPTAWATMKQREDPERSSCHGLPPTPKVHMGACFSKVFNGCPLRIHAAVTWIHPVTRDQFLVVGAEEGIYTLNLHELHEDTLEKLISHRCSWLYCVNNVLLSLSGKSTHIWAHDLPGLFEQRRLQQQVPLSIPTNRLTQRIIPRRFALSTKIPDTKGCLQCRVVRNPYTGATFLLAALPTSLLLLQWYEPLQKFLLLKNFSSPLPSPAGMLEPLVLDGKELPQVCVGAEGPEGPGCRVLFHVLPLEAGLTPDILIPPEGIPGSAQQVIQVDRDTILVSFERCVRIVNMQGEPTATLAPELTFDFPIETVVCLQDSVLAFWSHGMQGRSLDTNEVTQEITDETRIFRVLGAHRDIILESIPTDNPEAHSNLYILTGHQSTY
In kind it is functional.

Test [14] deals with Mitogen-activated protein kinase 9 (Homo sapiens, UniProt P45984). Format: functional.
Chain of Mitogen-activated protein kinase 9 (P45984 whole entry): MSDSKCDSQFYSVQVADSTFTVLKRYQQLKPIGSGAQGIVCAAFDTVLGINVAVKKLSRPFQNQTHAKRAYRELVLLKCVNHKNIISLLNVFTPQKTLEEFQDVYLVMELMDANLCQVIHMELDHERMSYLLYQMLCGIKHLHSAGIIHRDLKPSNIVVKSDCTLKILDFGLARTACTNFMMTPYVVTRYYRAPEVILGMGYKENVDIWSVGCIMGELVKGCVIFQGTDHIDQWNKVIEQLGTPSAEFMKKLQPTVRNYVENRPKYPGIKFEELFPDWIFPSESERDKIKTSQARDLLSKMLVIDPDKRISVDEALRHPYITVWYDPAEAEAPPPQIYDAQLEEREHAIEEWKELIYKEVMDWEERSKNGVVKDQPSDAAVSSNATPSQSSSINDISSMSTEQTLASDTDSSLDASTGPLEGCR
Test [15] addresses Mitogen-activated protein kinase 8 (Homo sapiens, UniProt P45983). In kind it is functional.
Test [16] has as its target Dual specificity tyrosine-phosphorylation-regulated kinase 1A (Homo sapiens, UniProt Q13627). Format: functional.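 Further: measured against DYRK1A as one member of a broad kinome profiling panel.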
The target of test [17] is Tyrosine-protein kinase JAK2 (Homo sapiens, UniProt O60674). Format: functional.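 Further: JAK2 tested as one member of a kinase panel.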
Chain of Tyrosine-protein kinase JAK2 (O60674 whole entry): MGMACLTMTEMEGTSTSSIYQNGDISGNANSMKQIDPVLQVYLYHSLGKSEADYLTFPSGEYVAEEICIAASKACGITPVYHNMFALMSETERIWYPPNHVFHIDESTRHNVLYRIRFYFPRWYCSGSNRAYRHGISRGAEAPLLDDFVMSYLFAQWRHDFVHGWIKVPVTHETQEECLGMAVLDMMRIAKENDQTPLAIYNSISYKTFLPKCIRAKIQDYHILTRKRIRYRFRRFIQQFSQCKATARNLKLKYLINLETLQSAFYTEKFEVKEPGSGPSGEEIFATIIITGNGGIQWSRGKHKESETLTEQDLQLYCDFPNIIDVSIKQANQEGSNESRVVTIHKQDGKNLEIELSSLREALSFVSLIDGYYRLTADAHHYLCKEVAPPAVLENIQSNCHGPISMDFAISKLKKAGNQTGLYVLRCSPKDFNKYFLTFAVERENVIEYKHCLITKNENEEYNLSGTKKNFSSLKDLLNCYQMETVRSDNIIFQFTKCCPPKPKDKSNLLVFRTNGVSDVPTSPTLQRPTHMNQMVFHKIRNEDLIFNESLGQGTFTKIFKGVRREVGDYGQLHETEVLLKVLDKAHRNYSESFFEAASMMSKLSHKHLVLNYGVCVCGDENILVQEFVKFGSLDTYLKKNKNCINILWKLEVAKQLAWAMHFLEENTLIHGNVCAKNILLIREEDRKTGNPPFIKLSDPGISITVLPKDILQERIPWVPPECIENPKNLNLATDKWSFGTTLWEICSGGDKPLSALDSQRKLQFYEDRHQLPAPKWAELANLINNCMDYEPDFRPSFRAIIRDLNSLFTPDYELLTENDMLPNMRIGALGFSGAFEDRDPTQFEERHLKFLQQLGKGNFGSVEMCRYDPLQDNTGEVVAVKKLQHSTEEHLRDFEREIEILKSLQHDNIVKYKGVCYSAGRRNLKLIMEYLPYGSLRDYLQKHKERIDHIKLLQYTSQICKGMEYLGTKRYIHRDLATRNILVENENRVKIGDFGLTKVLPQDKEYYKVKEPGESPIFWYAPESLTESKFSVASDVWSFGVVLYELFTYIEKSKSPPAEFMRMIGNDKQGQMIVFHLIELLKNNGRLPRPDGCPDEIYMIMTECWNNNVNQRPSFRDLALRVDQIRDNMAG
In test [18] the target is Serine/threonine-protein kinase TAO1 (Homo sapiens, UniProt Q7L7X3). In kind it is functional.
For test [19], the target named is Serine/threonine-protein phosphatase PP1-alpha catalytic subunit (Homo sapiens, UniProt P62136). The test can be described thus: inhibition of protein phosphatase 1 activity – biochemical, fluorescence, dose response (AID 2394).
In test [20] the target is T3, Tyrosyl-DNA phosphodiesterase 2 (Homo sapiens, UniProt O95551).
T3 sequence (O95551 whole entry): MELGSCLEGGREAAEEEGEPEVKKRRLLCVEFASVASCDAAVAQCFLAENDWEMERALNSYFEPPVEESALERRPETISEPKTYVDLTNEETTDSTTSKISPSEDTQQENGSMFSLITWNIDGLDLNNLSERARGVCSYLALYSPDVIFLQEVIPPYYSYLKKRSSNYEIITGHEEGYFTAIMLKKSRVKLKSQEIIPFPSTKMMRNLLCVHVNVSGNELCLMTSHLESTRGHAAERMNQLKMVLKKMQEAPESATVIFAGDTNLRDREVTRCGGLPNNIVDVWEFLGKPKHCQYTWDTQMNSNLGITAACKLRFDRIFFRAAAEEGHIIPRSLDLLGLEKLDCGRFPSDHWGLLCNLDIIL
The test can be described thus: potency against TDP2 phosphodiesterase activity – biochemical, epi absorbance, IC50, dose response (AID 743297).

By AC50 is commonly meant the concentration at which the activity in the assay is half-maximal. For orientation: CC50 means the concentration at which the toxic effect on the cells reaches its halfway point. Usually Ki stands for a measure of affinity in units of concentration, obtained from inhibition or displacement. One may read the pKi as the Ki on a negative log10 scale, so that one unit is a factor of ten. In general, IC50 refers to the midpoint of a concentration-inhibition curve.

Structures are written as SMILES. Active and inactive are the calls of the source.

Chain of Mitogen-activated protein kinase 8 (P45983 whole entry): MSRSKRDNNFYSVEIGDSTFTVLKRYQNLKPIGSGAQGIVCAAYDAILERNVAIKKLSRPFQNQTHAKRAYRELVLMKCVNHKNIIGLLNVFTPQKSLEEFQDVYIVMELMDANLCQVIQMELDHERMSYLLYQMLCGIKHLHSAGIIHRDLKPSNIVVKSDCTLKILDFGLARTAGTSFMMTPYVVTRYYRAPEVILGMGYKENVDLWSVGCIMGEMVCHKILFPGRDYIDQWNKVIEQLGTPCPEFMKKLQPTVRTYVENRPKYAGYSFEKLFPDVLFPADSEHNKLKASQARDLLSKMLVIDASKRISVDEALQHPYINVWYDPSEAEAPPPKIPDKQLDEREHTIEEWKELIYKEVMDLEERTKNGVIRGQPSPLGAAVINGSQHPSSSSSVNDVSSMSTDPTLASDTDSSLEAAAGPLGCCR

As to `CC(C)CC(=O)NC(c1cccs1)c1ccc2cccnc2c1O` (configuration not stated), the AC50 in [1] is 3.71 µM (active).
Turning to `CCOC(=O)c1ccc(NC2=CC(=O)C(=O)c3ccccc32)cc1`, the CC50 in test [2] was 15.2 µM (active). For the same compound, in test [1], the AC50 was 4.3 µM (active).
Take `NC1CCC(Nc2nc(Cl)cc(-c3c[nH]c4ncccc34)n2)CC1` (configuration not stated): the Ki is 1 nM (active) in test [3]; 50.1 nM (active) in test [4]; 39.8 nM (active) in test [5]; > 6.31 µM (inactive) in test [6]; > 2.51 µM (inactive) in [7]; 1.26 µM (active) in test [8]. Besides, the Ki was > 3.98 µM (inactive) in test [9]; 2 nM (active) in test [10]; 794 nM (active) in [11]; 200 nM (active) in test [12]; 63.1 nM (active) in [13]; 3.16 µM (active) in test [14]. Besides, the Ki in [15] is 1.26 µM (active); in test [16] it was 25.1 nM (active); in test [17], 794 nM (active); in [18] it was > 6.31 µM (inactive). In addition, the pKi in test [3] is given as 9; in test [4], 7.3; in test [5], 7.4; in test [8], 5.9; in test [10], 8.7; in [11], 6.1. The pKi in [12] was determined as 6.7; in test [13], 7.2; in test [14] it was 5.5; in test [15], 5.9; in test [16], 7.6; in [17], 6.1.
Turning to `O=C(O)C1CN(Cc2ccc(OCc3ccccc3)cc2Cl)C1`, the Ki in [3] is > 2510 nM (inactive); in test [5], > 5010 nM (inactive); in [6], > 6.31 µM (inactive); in test [7], > 2.51 µM (inactive); in [8], > 2.51 µM (inactive); in test [11] it was > 3980 nM (inactive). Further, the Ki in test [12] was > 3980 nM (inactive); in test [13] it was > 2510 nM (inactive); in test [14], > 3.98 µM (inactive); in test [15] it was > 5.01 µM (inactive); in test [16], > 2000 nM (inactive); in test [17] it was > 2510 nM (inactive). The Ki in test [18] is > 6.31 µM (inactive).
For the compound `COc1ccc(C(=O)c2nccc3cc(OC)c(OC)cc23)cc1OC`, in test [19], the IC50 was > 67 µM (not active).
As to `Cc1ccccc1-c1cc2c(nn1)-c1ccccc1C2=O`, the IC50 in [20] is 32 µM (inactive). Moreover, the CC50 in test [2] is 36.2 µM (active).
